Measured values from USRE38921E1, “Phenoxyalkylcarboxylic acid derivatives and process for their preparations” (Kyorin Pharmaceutical Co., Ltd., priority 1988, dated 2005).

What was measured:
[1] = system: bronchoconstrictor response induced by leukotriene D4; test: Inhibition test of bronchoconstriction in guinea pig; assay type: in vivo; design: unit not given here; conditions: 2 hours before i.v. leukotriene D4 (3 μg/kg), anesthetized male Hartley guinea pig
Experimental: Male Hartley guinea pig weighing about 450 g was anesthetized with sodium pentobarbital (30 mg/kg,i.p.), and the changes in transpulmonary pressure was measured according to the modified method of Konzett-Rössler (J. Harvey et al., J. Pharmacol. Method. 9, 147-155, 1983). Bronchoconstrictor response was induced by injection of leukotriene D4 (3 μg/kg) into left jugular vein. Further, indomethacin and propranolol were injected into vein of the animal, prior to the injection of leukotriene D4. Test compounds suspended in 5% solution of Gum Arabic were administered orally 2 hours before the injection of leukotriene D4.

melting point [°C] | SMILES | Inhibition ([1]; dose 3.125 mg/kg p.o.) | Inhibition ([1]; dose 6.25 mg/kg p.o.) | Inhibition ([1]; dose 12.5 mg/kg p.o.) | Inhibition ([1]; dose 50 mg/kg p.o.) | Inhibition ([1]; dose 1.56 mg/kg p.o.)
65 to 66 | CCCc1c(SCCCOc2ccc(C(C)=O)c(OCCCC(=O)OCC)c2CCC)ccc(C(C)=O)c1O [Example 1, Ethyl 4-[6-acetyl-3-[3-(4-acetyl-3-hydroxy-2-propylphenylthio)propoxy]-2-propylphenoxy]butyrate] |  |  |  |  | 
87 to 88 | CCCc1c(OCCCSc2ccc(C(C)=O)c(OCCCC(=O)OCC)c2CCC)ccc(C(C)=O)c1O [Example 23, Ethyl 4-[6-acetyl-3-[3-(4-acetyl-3-hydroxy-2-propyl-phenoxy)propylthio]-2-propylphenoxy]butyrate] |  |  |  |  | 
74 to 76 | CCCc1c([S+]([O-])CCCOc2ccc(C(C)=O)c(OCCCC(=O)OCC)c2CCC)ccc(C(C)=O)c1O (stereo not drawn) [Example 31, Ethyl 4-[6-acetyl-3-[3-(4-acetyl-3-hydroxy-2-propyl-phenylsulfinyl)propoxy]-2-propylphenoxy]butyrate] |  |  |  |  | 
77 to 79 | CCCc1c(S(=O)(=O)CCCOc2ccc(C(C)=O)c(OCCCC(=O)OCC)c2CCC)ccc(C(C)=O)c1O [Example 32, Ethyl 4-[6-acetyl-3-[3-(4-acetyl-3-hydroxy-2-propyl-phenylsulfonyl)propoxy]-2-propylphenoxy]butyrate] |  |  |  |  | 
 | CCCc1c(SCCCOc2ccc(C(C)=O)c(OCCCC(=O)O)c2CCC)ccc(C(C)=O)c1O [Example 33, 4-[6-Acetyl-3-[3-(4-acetyl-3-hydroxy-2-propyl-phenylthio)propoxy]-2-propylphenoxy]butyric acid] | 28.0 | 40.2 | 63.9 | 94.8 | 
 | CCCc1c(SCCCOc2ccc(C(C)=O)c(OCCCCCC(=O)O)c2CCC)ccc(C(C)=O)c1O [Example 35] |  | 10.7 | 51.3 | 92.4 | 
 | CCCc1c(SCCCSc2ccc(C(C)=O)c(OCCCC(=O)O)c2CCC)ccc(C(C)=O)c1O [Example 45] | 54.2 | 71.3 | 72.7 | 96.2 | 22.4
 | CCCc1c(SCCCSc2ccc(C(C)=O)c(OCCCCC(=O)O)c2CCC)ccc(C(C)=O)c1O [Example 46] | 38.5 | 46.6 | 37.5 | 94.2 | 
 | CCCc1c(SCCCSc2ccc(C(C)=O)c(OCCCCCC(=O)O)c2CCC)ccc(C(C)=O)c1O [Example 47] | 29.1 |  | 72.5 | 92.9 | 
 | CCCc1c(SCCCSc2ccc(C(C)=O)c(OCCCCCCC(=O)O)c2CCC)ccc(C(C)=O)c1O [Example 48] | 33.6 |  | 79.7 | 90.7 | 
 | CCCc1c(SCCCSc2ccc(C(C)=O)c(OCCCCCCCCC(=O)O)c2CCC)ccc(C(C)=O)c1O [Example 49] |  | 19.1 | 58.9 | 77.7 | 
 | CCCc1c(OCCCSc2ccc(C(C)=O)c(OCCCC(=O)O)c2CCC)ccc(C(C)=O)c1O [Example 53] | 15.2 | 50.4 | 60.4 | 66.7 | 
 | CCCc1c(OCCCSc2ccc(C(C)=O)c(OCCCCCC(=O)O)c2CCC)ccc(C(C)=O)c1O [Example 55] |  | 36.4 | 45.0 | 88.0 | 
